Laboratory results reported in publication PMC8039949, “A novel small-molecule PROTAC selectively promotes tau clearance to improve cognitive functions in Alzheimer-like models” (Theranostics, 2021).

Test system: 3xTg-AD mice
Assay: Multiple-doses subcutaneous administration in 3xTg-AD mice, behavior and synaptic function
Format: in vivo, mouse
Settings: 9.5 m-old 3xTg-AD mice, subcutaneous 3 mg/kg every 6 days, 5 times
Protocol: The Open field (OF) test was consisted of a 5 min session in a quadrate chamber (white opaque plastic). The chamber was divided into 16 square regions, a central field (center 4 square regions) and a periphery field. Each mouse was placed in the same position at the start of the test. Behaviors were recorded and analyzed by the video tracking system (Chengdu Taimeng Software Co., Ltd, China).
For novel object recognition (NOR) test, the mice were habituated to a quadrate chamber (white opaque plastic) for 5 min without objects 24 h prior to the test. The chamber was cleaned with 75% ethanol between each habituation period. The day after the mice re-entered the chamber from the same starting point and were given 10 min to familiarize themselves with the object A and object B. After each period the chamber and objects were cleaned with 75% ethanol. The next day after the familiarization period, object B was replaced with noval object C, and the mice were given 10 min to explore both objects. The exploring time in object A (TA) and C (TC) was recorded using the video tracking system. The discrimination index was calculated by (TC-TA)/(TA+TC).
The Elevated plus maze (EPM) test was performed as follows: mice were placed at the junction of the four arms of the maze (white opaque plastic), and started the test from facing an open arm. The chambers were cleaned with 75% ethanol before the next mouse was trained. The entries and duration time in each arm were recorded for 5 min by the video tracking system (Chengdu Taimeng Software Co., Ltd, China). An increase in open arm activity (duration and/or entries) reflects anti-anxiety behavior.
The Morris water maze (MWM) test was conducted to assess the spatial learning and memory. The maze was filled with water and divided into 4 quadrants with a platform placed in one quadrant. The mice were trained to find the hidden platform for 6 consecutive days, and underwent […] training trials (once per quadrant) per day from 14:00 to 20:00 pm. In each training trial, the mouse started from one of four quadrants facing the wall of the pool and the trial ended when the animal climbed on the platform. […] The spatial memory was tested 1 d after the last training by removed the platform. The longer a mouse stayed in the previous platform-located quadrant, the better it scored the spatial memory. A video camera, fixed to the ceiling 1.5 m from the water surface, was used to record the swimming path and the time for mice to find the platform (latency) or to pass through the previous platform-located quadrant each day. The camera was connected to a digital-tracking device attached to an IBM computer (Armonk, NY).
For fear conditioning (FC) test, the mice were placed into a square chamber with a grid floor. On the first day (day 1), each mouse was habituated to the chamber for 3 min, and then a foot shock (0.9 mA, 3 s) was delivered. Three sequential foot shocks at 3 min intervals were applied. Then the mice were returned to their home cages. On the next day (day 2), the mice were exposed to the same chamber without any stimulus for 3 min. The contextual conditioning was assessed by recording freezing behavior during the 3 min exposure. Freezing time during the 3 min was recorded for assessment of memory.
Mice used for electrophysiology experiments were deeply anesthetized as described above. When all pedal reflexes were abolished, brains were removed and placed in ice-cold oxygenated slicing solution containing the following: 225 mM sucrose, 3 mM KCl, 1.25 mM NaH2PO4, 24 mM NaHCO3, 6 mM MgSO4, 0.5 mM CaCl2, and 10 mM D-glucose. Coronal slices (300 μm thickness) were cut at 4-5 °C in the slicing solution using a Leica VT1000S vibratome and then transferred to an incubation chamber filled with oxygenated slicing solution in a 30 °C water bath for 1 h before being recorded. […]

CC(=O)N1CCCN(c2nc(NCCc3cccs3)nc(N(C)CC(=O)NCCOCCOCCOCC(=O)N[C@H](C(=O)N3C[C@H](O)C[C@H]3C(=O)NCc3ccc(-c4scnc4C)cc3)C(C)(C)C)n2)CC1 [C004019]
FC test, freezing index: restored the freezing index
NOR test, discrimination index: almost completely restored the memory ability
motor and anxiety levels (OF and EPM tests): did not significantly affect the motor and anxiety levels
MWM test, latency to reach the platform (6 days learning trial): shorter latency to reach the platform
spine density (Golgi-cox staining): restored spine density
neurite arborization (Sholl analysis): didn't have any effect on neurite arborization
LTP induction (fEPSP amplitude and slope) (hippocampal slices): restored
